Read-outs that look alike come from different tables or passages of the source.
Assays:
hM1 mAChR = biological target: T1, hM1 mAChR (Homo sapiens, UniProt P11229); test: Whole-cell [3H]NMS equilibrium competition radioligand binding; settings: [3H]NMS binding; for α (binding cooperativity with ACh): antilog
T1 construct: expressed in transfected cells
T1 sequence (P11229 1-460): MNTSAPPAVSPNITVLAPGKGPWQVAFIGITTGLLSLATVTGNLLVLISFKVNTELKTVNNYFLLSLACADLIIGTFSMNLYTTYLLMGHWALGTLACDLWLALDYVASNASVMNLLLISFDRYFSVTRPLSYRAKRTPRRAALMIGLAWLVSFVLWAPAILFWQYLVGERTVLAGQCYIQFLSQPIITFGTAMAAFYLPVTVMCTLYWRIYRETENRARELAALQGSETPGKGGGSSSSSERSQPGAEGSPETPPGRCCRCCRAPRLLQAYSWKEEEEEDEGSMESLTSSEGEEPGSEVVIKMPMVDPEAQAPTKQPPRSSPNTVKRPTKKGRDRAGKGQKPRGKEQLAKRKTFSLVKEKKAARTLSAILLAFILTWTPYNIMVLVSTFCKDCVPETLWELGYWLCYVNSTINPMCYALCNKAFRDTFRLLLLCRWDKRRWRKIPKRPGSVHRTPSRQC
Description: To determine the affinity (pKB) of the allosteric modulators for the allosteric site, and their binding cooperativity with ACh (log αACh) at the M1 mAChR, whole cell equilibrium competition binding studies were performed, using [^3H]NMS to label the orthosteric site.
FlpIn Chinese hamster ovary (CHO) cells stably expressing the hM1 mAChR were grown in Dulbecco’s modified Eagle’s medium (DMEM) (Invitrogen, Carlsbad, CA) supplemented with 5% foetal bovine serum (FBS) (Thermo-Trace, Melbourne, Australia) and 300 μg/mL G418 (Invitrogen, Carlsbad, CA). The cells were plated at 50,000 cells per well of 96-well white clear bottom plates (Greiner Bio-one, Kremsmünster, Austria), and were grown overnight. The following day, cells were washed twice with Phosphate Buffered Saline (PBS), and incubated with increasing concentrations of ACh (Sigma) in the absence or presence of increasing concentrations of each modulator and 0.2 nM [^3H]NMS (PerkinElmer Life Sciences) in binding buffer (20 mM HEPES, 100 mM NaCl, 10 mM MgCl2, pH 7.4) for 5 h at room temperature. Nonspecific binding was determined using atropine at the final concentration of 10 μM. The assays were terminated by rapid removal of the unbound radioligand followed by two washes with 100 μL/well ice-cold 0.9% NaCl buffer. Radioactivity was determined by addition of 100 μL/well Ultima gold (PerkinElmer Life Sciences) and counting in a MicroBeta plate reader (PerkinElmer Life Sciences).
Binding interaction studies with allosteric ligands were fitted to the following allosteric ternary complex model [Eq. (2)][15] Y=Bmax|A|/[Λ]+[KAKB/α^′[B]+KB][1+[I]/K1+[B]/KB+α[I][B]/KIKB] where Bmax is the total number of receptors, [A], [B] and [I] denote the concentrations of radioligand, allosteric modulator, and orthosteric ligand, respectively; KA, KB and KI are their respective equilibrium dissociation constants. α’ and α are the affinity cooperativity factors between the allosteric ligand and radioligand or the allosteric modulator and ACh, respectively. Values of α or α’ > 1 denote positive cooperativity, values < 1 but > 0 denote negative cooperativity, and a value of 1 indicates neutral coopera-tivity.

M1 mAChR = biological target: T2, M1 mAChR (Homo sapiens, UniProt P11229); test: β-arrestin 2 recruitment assay (BRET); assay type: cell-based; settings: for αβ (functional cooperativity with ACh) / τB (intrinsic efficacy of the modulator): antilog, in parentheses; for log τB (logarithm of intrinsic efficacy of the modulator) / log αβ (logarithm of functional cooperativity between ACh and modulator): operational model; for log αβ (logarithm of functional cooperativity between ACh and modulator): pKB constrained to binding value
T2 construct: expressed in transfected cells; host or cells: parental FlpIn CHO cells (transient, PEI)
T2 sequence (P11229 1-460): T1 sequence (P11229 1-460)
Text: The compounds were then fully characterised in two functional assays (Figure 2C and D); the Gq-coupled IP1 accumulation assay (Figure S2), which was used for the initial screening of the compounds, and a β-arrestin 2 recruitment assay (Figure S3). The operational efficacy (τB) values for the modulators and their functional cooperativity estimates with ACh (logαβACh) at both signalling pathways were estimated by applying an operational model of allosterism and agonism to the data [Eq. (3)],[16] and are listed in Table 5.
Parental FlpIn CHO cells were plated at 30000 cells/well of 96-well white Culture plates (Perkin Elmer Life Sciences) and transiently transfected with 10 ng/well of M1 Renilla luciferase (Rluc)-8 and 40 ng/well of YFP-β-arrestin 2 using linear polyethyleneimine (PEI/DNA ratio 6:1) diluted in 150 mM NaCl. DNA:PEI complexes were formed by 15 min incubation at room temperature then added to the cells and incubated at 37°C for 24 h prior to use. Cells were then washed and equilibrated in Hanks’ balanced salt solution for 1 h at 37°C. Coelenterazine h at a final concentration of 5 μM was added to each well, followed by addition of increasing concentrations of ACh in the absence or presence of increasing concentrations of each modulator. Lumines-cence and fluorescence signals were measured 5 min after agonist stimulation using the LUMIstar Omega plate reader (BMG LabTech, Offenburg, Germany). […] Data were then normalized to the maximum response to ACh.
Functional interaction studies between ACh and allosteric modulators in IP1 and β-arrestin 2 recruitment assays were analysed according to a three-parameter logistic equation or the following operational model of allosterism and agonism [Eq. (3)].[16] E=Basal+(Em−Basal)([A](KB+αβ[B])+τB[B]EC50)^n/EC50n(KB+[B])^n+([A](KB+αβ[B])+τB[B]EC50)^n where Em is the maximal possible system response, and Basal is the response in the absence of agonist. [A] and [B] are concentrations of orthosteric and allosteric ligands, respectively. KB is the equilibrium dissociation constant of allosteric ligand, and EC50 is the concentration of orthosteric agonist required to achieve half maximal response. α and β represent the magnitude of the allosteric effects on orthosteric ligand affinity and efficacy, respectively; τB is the efficacy of allosteric ligand, and n is the slope factor of the transducer function that links occupancy to response.

[1] = In vivo brain and plasma exposure in mice after IP administration; settings: for cbrain, total concentration, 90 min post-dose / cplasma, total concentration, 90 min post-dose / cplasma, total concentration, 20 or 45 min post-dose: range n=3; for cbrain, total concentration, 20 or 45 min post-dose / cplasma, total concentration, 20 or 45 min post-dose: 20 min (10 mg/kg) for 2, 7f, 13c, 45 min (20 mg/kg) for BQCA; for cbrain, total concentration, 20 or 45 min post-dose: range in individual mice n=3
Description: The study was performed using 10–12 weeks old male C57Bl/6 J naïve mice in accordance with the Australian Code of Practice for the Care and Use of Animals for Scientific Purposes, with procedures approved by the Animal Ethics Committee of the Monash Institute of Pharmaceutical Sciences.

[2] = 10 mg/kg (BQCA 20 mg/kg), range n=3, in parentheses
[3] = 20 min (10 mg/kg) for 2, 45 min (20 mg/kg) for BQCA, range n=3, in parentheses
[4] = allosteric ternary complex model, mean ± SEM, read-out: pKB (negative logarithm of the allosteric modulator equilibrium dissociation constant) (converted)

| SMILES | Kb (hM1 mAChR; KB, antilog of pKB, in parentheses) [µM] | α (binding cooperativity with ACh) (hM1 mAChR; in parentheses) | log αACh (logarithm of binding cooperativity between ACh and modulator) (hM1 mAChR; mean ± SEM) | Kb (hM1 mAChR; pKB (negative logarithm of the allosteric modulator equilibrium dissociation constant), allosteric ternary complex model, mean ± SEM) [µM] | αβ (functional cooperativity with ACh) (M1 mAChR) | τB (intrinsic efficacy of the modulator) (M1 mAChR) | log τB (logarithm of intrinsic efficacy of the modulator) (M1 mAChR) | log αβ (logarithm of functional cooperativity between ACh and modulator) (M1 mAChR) | cbrain, total concentration, 90 min post-dose ([1]; 10 mg/kg (BQCA 20 mg/kg)) | cplasma, total concentration, 90 min post-dose ([1]; 10 mg/kg (BQCA 20 mg/kg)) | cbrain, unbound concentration, 90 min post-dose [1, 2] [µM] | cplasma, unbound concentration, 90 min post-dose [1, 2] [µM] | cbrain, total concentration, 20 or 45 min post-dose [1] | cplasma, total concentration, 20 or 45 min post-dose [1] | cbrain, unbound concentration, 20 or 45 min post-dose [1, 3] [µM] | cplasma, unbound concentration, 20 or 45 min post-dose [1, 3] [µM] | Kb (hM1 mAChR; [4]) [µM] |
| --- | --- | --- | --- | --- | --- | --- | --- | --- | --- | --- | --- | --- | --- | --- | --- | --- | --- |
| Cn1cc(-c2ccc(COc3ccccc3-c3cc(=O)n(C4CCCCC4O)cn3)cc2)cn1 (stereo not shown) [Compound 2, 3-(2-Hydroxycyclohexyl)-6-(2-((4-(1-methyl-1H-pyrazol-4-yl)benzyl)oxy)phenyl)pyrimidin-4(3H)-one] | 3 | 240 | 2.38±0.13 | 3.16 | 63 | 2 | 0.37±0.11 | 1.80±0.35 | 0.0 to 0.1 µM | 0.7 to 1.1 µM | 0.0 | 0.0 | 0.7 to 1.2 µM | 15.0 to 16.5 µM | 0.0 | 0.1 | – |
| CN(C)C(=O)Cn1ccc(-c2ccccc2OCc2ccc(-c3cnn(C)c3)cc2)cc1=O [Compound 13c, N,N-Dimethyl-2-(4-(2-((4-(1-methyl-1H-pyrazol-4-yl)benzyl)oxy)phenyl)-2-oxopyridin-1(2H)-yl)acetamide] | – | 72 | 1.86±0.28 | – | 55 | 1 | –0.01±0.06 | 1.74±0.11 | n.q. | 4.9–5.4 (n.a.) μM | – | – | n.q. | 25.3–46.5 (n.a.) μM | – | – | 16.6 |
| Cn1cc(-c2ccc(COc3ncccc3-c3ccn(C4CCCCC4O)c(=O)c3)cc2)cn1 (stereo not shown) [Compound 7f, 1’-(2-Hydroxycyclohexyl)-2-((4-(1-methyl-1H-pyrazol-4-yl)benzyl)oxy)-[3,4’-bipyridin]-2’(1’H)-one] | – | 240 | 2.38±0.39 | – | 81 | 2 | 0.23±0.08 | 1.91±0.10 | – | 11.1–13.7 (n.a.) μM | – | – | 0.3–0.4 (n.a.) μM | 31.8–40.7 (n.a.) μM | – | – | 38 |

From article PMC7616174, “Development of Novel 4-Arylpyridin-2-one and 6-Arylpyrimidin-4-one Positive Allosteric Modulators of the M1 Muscarinic Acetylcholine Receptor” (ChemMedChem, 2020)
